Data from patent publication US10653717B2, “Antibiotic compositions” (priority 2016, dated 2020).

Tests used:
Assay in all cases: Drug sensitivity of clinical isolated strain
[1] = test system: ECO-3: E. coli ZY-1; assay type: cell-based, Escherichia coli
[2] = test system: KP-2: K. pneumonia subsp. pneumonia 0322#; assay type: cell-based, Klebsiella pneumonia
[3] = test system: ECL-2: E. cloacae 2301#; assay type: cell-based, Enterobacter cloacae
[4] = test system: PA-1: Pseudomonas aeruginose 1298#; assay type: cell-based, Pseudomonas aeruginosa
[5] = test system: PA-2: P. aeruginose 0009#; assay type: cell-based, Pseudomonas aeruginosa; settings: PA-2 (Table 3)
[6] = test system: ECL-1: Enterobacter cloacae 0431#; assay type: cell-based; settings: ECL-1 (Table 3)
[7] = test system: AB-2: A. baumannii 0361#; assay type: cell-based, Acinetobacter baumannii; settings: AB-2 (Table 3)
[8] = test system: KP-1: Klebsiella pneumonia subsp. pneumonia 13#; assay type: cell-based; settings: KP-1 (Table 3)
[9] = test system: ECO-2: E. coli 2219#; assay type: cell-based, Escherichia coli; settings: ECO-2 (Table 3)
[10] = test system: ECO-1: Escherichia coli 1139#; assay type: cell-based
[11] = test system: AB-1: Acinetobacter baumannii H#; assay type: cell-based
Also: key: R: resistant; S: sensitive.

Molecule | Drug sensitivity ([1]; E. coli ZY-1 (Table 7)) | Drug sensitivity ([1]; ECO-3 (Table 3)) | Drug sensitivity ([2]; KP-2 (Table 3)) | Drug sensitivity ([2]; KP-2 (table of Example 3)) | Drug sensitivity ([3]; ECL-2 (Table 3)) | Drug sensitivity ([3]; ECL-2 (table of Example 3)) | Drug sensitivity ([4]; PA-1 (Table 3)) | Drug sensitivity ([4]; PA-1 (table of Example 3)) | Drug sensitivity [5] | Drug sensitivity [6] | Drug sensitivity [7] | Drug sensitivity [8] | Drug sensitivity [9] | Drug sensitivity ([10]; ECO-1 (Table 3)) | Drug sensitivity ([10]; ECO-1 (table of Example 3)) | Drug sensitivity ([11]; AB-1 (Table 3)) | Drug sensitivity ([11]; AB-1 (table of Example 3))
NCC[C@H](O)C(=O)N[C@@H]1C[C@H](N)[C@@H](O[C@H]2O[C@H](CN)[C@@H](O)[C@H](O)[C@H]2O)[C@H](O)[C@H]1O[C@H]1O[C@H](CO)[C@@H](O)[C@H](N)[C@H]1O [Amikacin] | S | S | S | S | S | S | S | S | R | S | R | R | S | S | S | R | R
CC1(C)S[C@@H]2[C@H](NC(=O)[C@H](N)c3ccccc3)C(=O)N2[C@H]1C(=O)O [Ampicillin] | S | S | R | R |  |  | R/S | R/S | R |  | R | R | R | S | S | R | R
C[C@H]1[C@H](NC(=O)/C(=N\OC(C)(C)C(=O)O)c2csc(N)n2)C(=O)N1S(=O)(=O)O [Aztreonam] | S | S |  |  | R | R | R | R | R | R | R |  | R | R | R | R | R
Cc1nnc(SCC2=C(C(=O)O)N3C(=O)[C@@H](NC(=O)Cn4cnnn4)[C@H]3SC2)s1 [Cefazolin] | S | S | R | R |  |  | R | R | R |  | R | R | R | R | R | R | R
CO/N=C(\C(=O)N[C@@H]1C(=O)N2C(C(=O)[O-])=C(C[N+]3(C)CCCC3)CS[C@H]12)c1csc(N)n1 [Cefepime] | S | S | R | R | R | R | R | R | R | R | R | R | R | R | R | R | R
CO/N=C(\C(=O)N[C@@H]1C(=O)N2C(C(=O)O)=C(COC(C)=O)CS[C@H]12)c1csc(N)n1 [Cefotaxime] | S | S | R | R | R | R | R | R | R | R | R | R | R | R | R | R | R
CC(C)(O/N=C(\C(=O)N[C@@H]1C(=O)N2C(C(=O)[O-])=C(C[n+]3ccccc3)CS[C@H]12)c1csc(N)n1)C(=O)O [Ceftazidime] | S | S | R | R | R | R | R | R | R | R | R | R | R | R/S | R/S | R | R
O=C(N[C@H](CO)[C@H](O)c1ccc([N+](=O)[O-])cc1)C(Cl)Cl [Chloramphenicol] | S | S | R | R | R | R |  |  | R | R | R | R | S | S | S | R | R
C[C@@H](O)[C@H]1C(=O)N2C(C(=O)O)=C(SCCN=CN)C[C@H]12 [Imipenem] | S | S | S | S | R | R | S | S |  | S | R | R | S | S | S | R | R
C[C@H]1COc2c(N3CCN(C)CC3)c(F)cc3c(=O)c(C(=O)O)cn1c23 [Levofloxacin] | S |  | R | R | R | R | R | R | R | R | R | R | R | R | R | R | R
C[C@@H](O)[C@H]1C(=O)N2C(C(=O)O)=C(S[C@@H]3CN[C@H](C(=O)N(C)C)C3)[C@H](C)[C@H]12 [Meropenem] | S | S | S | S | R | R | R | R | R/S | S | R | R | S | S | S | R | R
CCN1CCN(C(=O)N[C@@H](C(=O)N[C@@H]2C(=O)N3[C@@H]2SC(C)(C)[C@@H]3C(=O)O)c2ccccc2)C(=O)C1=O [Piperacillin] | S | S | R | R | R | R | R/S | R/S | R | R | R | R | R | R | R | R | R
CC1(C)[C@H](C(=O)O)N2C(=O)C[C@H]2S1(=O)=O [Sulbactam] | S | S | R | R |  |  |  |  |  |  |  | R | R | R/S | R/S | R | R
Nc1ccc(S(N)(=O)=O)cc1 [Sulfanilamide] | R | R |  |  | R | R | R | R | R | R | S |  | R | R | R |  | 
Polymyxin |  |  |  |  | S | S | S | S | S | R | S |  |  |  |  | S | S
